Values joined by “and” are separate entries in the source; they are usually repeats but may differ in a detail not shown here. Equal values may be shown once. Read-outs that look alike come from different tables or passages of the source.
Columns and labels:
[1] = Light/dark exploration test; type: in vivo, mouse; details: 10 mg/kg ip, total hours (32) referred to all animals, 8 animals, 4 hours; for Dark section: controls 14; for Lit section: controls 18
Method: The test is performed with a cage subdivided into two sections, a dark and a lit one.
Evidence was provided that the mice treated with adequate doses of anxiolytic drugs, e.g. Diazepam or Buspirone, spend a longer time in the lit section than controls.
The anxiolytic activity, if any, of the molecules can be evaluated on the basis of the time spent in the lit section.
The total duration of the test for each group of 8 animals was 4 hours.
The data are expressed as total hours (32) referred to all animals.

[2] = Despair test (Porsolt behavioural test, duration of immobility); type: in vivo, Male Swiss mice (CD strain, Charles River); details: mice; for <%: decrease of immobility vs dose 0; for Duration of immobility: one hour before testing
Method: This behavioural test developed by R.D. Porsolt et al. (Arch. int. Pharmacodyn. 229, 327-336, 1977) is commonly used to evaluate the activity of antidepressant agents.
Male Swiss mice (CD strain, Charles River) weighing 30 g were used and assigned at random to the various treatment groups.
The mice were plunged individually into a Plexiglas cylinder of 25 cm in height and 9 cm in diameter, filled with water at 24°C, for a 6 min latency up to 6 cm from the upper lip.
The duration of the test was 6 minutes. The time during which the animal kept floating passively was measured starting from the 2nd minute (duration of immobility).
One hour before testing, sodium gamma-hydroxybutyrate (NaGHB) as an acqueous suspension additioned of non-ionic surfactant Tween was administered by i.p. injection in a volume of 10 ml/kg, or per os.
Blind tests were performed. The statistical analysis of the data was performed, whenever possible, by Student's t-test, otherwise by Mann Whitney's non-parametric test.

Toxicity (LD50), Table 6 = details: rat, in vivo, rats, read-out: LD₅₀
From the text: The toxicity of gamma-hydroxybutyrate sodium salt to rats compared with antidepressants and anxiolytics known to the prior art is shown in Table 6.

[3] = parameters: species or system Male Sprague-Dawley rats; details: rat, in vivo
[4] = rats, ip; antidepressants and anxiolytics known to the prior art; cited from earlier work

## CN1C(=O)CN=C(c2ccccc2)c2cc(Cl)ccc21 [Diazepam]
[1]
  Dark section: 7 total hours
  Lit section: 25 total hours

## O=C([O-])CCCO.[Na+] [NaGHB, sodium gamma-hydroxybutyrate]
[2]; ip, 5 mg/kg
  <%: 15%
  Duration of immobility: 179 ± 24 s
[2]; ip, 10 mg/kg
  <%: 27%
  Duration of immobility: 153 ± 19 s
[2]; ip, 20 mg/kg
  <%: 36%
  Duration of immobility: 134 ± 26 s
[2]; ip, 40 mg/kg
  <%: 43%
  Duration of immobility: 120 ± 12 s
[2]; per os, 20 mg/kg
  <%: 17%
  Duration of immobility: 189 ± 23 s
[2]; per os, 50 mg/kg
  <%: 40%
  Duration of immobility: 137 ± 16 s
[2]; per os, 100 mg/kg
  <%: 42%
  Duration of immobility: 133 ± 31 s
Toxicity (LD50), Table 6; po, os
  LD50: 12400 mg/kg
Toxicity (LD50), Table 6; ip
  LD50: 3280 mg/kg
[3]
  mean reaction time: decreased mean reaction time
  number of attempts to escape: increased number of attempts to escape
[3]; 10 mg/kg
  difference between the group of controls and the CNaGHB group: no significant difference
[3]; ip, 10 mg/kg
  Mean reaction time, mean ± S.E.: 5.76±0.34 and 5.4±1.0
  No. of escape failures, mean ± S.E.: 21.3±1.1 and 23.6±2.6
[1]
  Dark section: 9 total hours
  Lit section: 23 total hours

## O=C1CC2(CCCC2)CC(=O)N1CCCCN1CCN(c2ncccn2)CC1 [Buspirone]
[4]
  LD₅₀: 136 mg/kg
[1]
  Dark section: 10 total hours
  Lit section: 22 total hours
